One data set relates to Grn (granulin). The settings on record: ref Cenik et al., 2011; cited from earlier work.
Data set [1] relates to Egr1-EGFP reporter gene in primary cultured cortical neurons. In words: Egr1 reporter gene assay. Format: cell-based, mouse. The following applies: 24 hour treatments. A general note: In a reporter assay the amount or activity of a reporter protein is the signal.
Data set [2] relates to mouse primary forebrain cultures. In words: Synapsin I punctae imaging along Map2-positive dendrites. It counts as cell-based. The settings on record: 1 μM, 24 hr.
The target of another data set is recombinant HDAC5 (Homo sapiens, UniProt Q9UQL6). In words: In vitro HDAC enzymatic assay, HDAC5. The settings on record: read-out: IC50 for inhibition of enzymatic activity of HDAC5; Class IIa.
In the next data set the target is T1, recombinant HDAC7 (Homo sapiens, UniProt Q8WUI4).
T1 sequence (Q8WUI4 1-952): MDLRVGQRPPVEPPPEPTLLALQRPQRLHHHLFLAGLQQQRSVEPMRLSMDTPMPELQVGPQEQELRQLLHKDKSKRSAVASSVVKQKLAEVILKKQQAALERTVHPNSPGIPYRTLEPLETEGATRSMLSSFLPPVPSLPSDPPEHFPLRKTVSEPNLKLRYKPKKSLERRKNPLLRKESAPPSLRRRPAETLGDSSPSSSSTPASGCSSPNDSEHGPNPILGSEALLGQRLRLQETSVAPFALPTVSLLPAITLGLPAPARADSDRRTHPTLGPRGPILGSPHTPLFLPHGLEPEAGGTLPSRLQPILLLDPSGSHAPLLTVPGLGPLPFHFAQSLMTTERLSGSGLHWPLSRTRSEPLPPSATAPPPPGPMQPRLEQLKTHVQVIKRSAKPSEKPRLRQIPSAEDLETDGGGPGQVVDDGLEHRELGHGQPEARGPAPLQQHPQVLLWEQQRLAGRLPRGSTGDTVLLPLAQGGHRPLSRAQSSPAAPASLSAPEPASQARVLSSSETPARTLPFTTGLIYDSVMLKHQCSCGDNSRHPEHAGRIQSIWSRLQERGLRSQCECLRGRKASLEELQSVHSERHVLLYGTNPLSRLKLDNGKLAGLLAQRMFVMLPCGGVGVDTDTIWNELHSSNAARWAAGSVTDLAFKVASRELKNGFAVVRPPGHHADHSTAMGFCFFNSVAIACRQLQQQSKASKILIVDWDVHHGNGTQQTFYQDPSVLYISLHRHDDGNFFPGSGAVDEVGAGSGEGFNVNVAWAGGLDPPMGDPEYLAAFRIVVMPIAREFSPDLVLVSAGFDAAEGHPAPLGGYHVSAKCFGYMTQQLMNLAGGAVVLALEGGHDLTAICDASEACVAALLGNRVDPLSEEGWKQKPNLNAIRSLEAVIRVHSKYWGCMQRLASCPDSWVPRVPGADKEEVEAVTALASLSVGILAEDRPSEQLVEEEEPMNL
The experiment in a line: In vitro HDAC enzymatic assay, HDAC7. The following applies: read-out: IC50 for inhibition of enzymatic activity of HDAC7; Class IIa.

Data set [3] concerns mouse forebrain primary cultured neurons. The experiment in a line: Quantitative RT-PCR assays of gene expression. It counts as cell-based. The following applies: 1 μM.
In data set [4] the test system is hippocampal acetylation of H4K12 and H3K9. The experiment in a line: Western blot of hippocampal histone acetylation after IP injection. It counts as in vivo, mouse. The following applies: one hour after IP injection. In general terms: A western blot detects proteins with antibodies after separation by electrophoresis.
The subject of the next data set is C57BL/6J mice. The experiment in a line: Open field locomotion prior to footshock. Format: in vivo, mouse. The settings on record: 25 mg/kg IP daily, 10 days.
The subject of data set [5] is mouse primary forebrain cultures. In words: Toxicity in primary neuronal cultures on coverslips. It counts as cell-based. The settings on record: 1 μM, 24 hrs.
Data set [6] has as its system mouse forebrain primary cultured neurons. In words: Transcriptome profiling. Format: cell-based. The following applies: 1 μM, 24 hrs.
A further data set deals with recombinant HDAC9 (Homo sapiens, UniProt Q9UKV0). The experiment in a line: In vitro HDAC enzymatic assay, HDAC9. The settings on record: read-out: IC50 for inhibition of enzymatic activity of HDAC9; Class IIa.
Data set [7] deals with AcH4K12 in mouse primary cultured forebrain neurons. In words: Neuronal histone acetylation immunofluorescence assay, AcH4K12. The following applies: AcH4K12 and AcH3K9; more potent than SAHA.
Data set [8] relates to 6X-CRE-β-galactosidase CREB reporter gene in PC12 cells. The experiment in a line: CREB reporter gene assay. Format: cell-based. The following applies: for effect on forskolin induction of the CREB reporter gene: in the presence of forskolin (10 μM), 4 hr, library compounds 20 μM.
Data set [9] concerns AcH4K12 in mouse primary forebrain cultures. The experiment in a line: High resolution neuronal histone acetylation imaging. Format: cell-based. The following applies: 1 μM, 24 hrs.
Data set [10] concerns acetylated histone H3, H4, H2A, H2B in cultured primary mouse neurons. The experiment in a line: Western blotting of neuronal histone acetylation. Format: cell-based. The settings on record: 1 μM, 24 hrs.
The next data set deals with recombinant HDAC2 (Homo sapiens, UniProt Q92769). In words: In vitro HDAC enzymatic assay, HDAC2.
Data set [11] concerns the target T2, recombinant HDAC1 (Homo sapiens, UniProt Q13547). The experiment in a line: biochemical.
The target in a further data set is recombinant HDAC3 (Homo sapiens, UniProt O15379). The experiment in a line: In vitro HDAC enzymatic assay, HDAC3.
Data set [12] is described as follows: Crebinostat concentration in brain and plasma. The settings on record: single IP dose 25 mg/kg. Format: in vivo, mouse.
The next data set has as its target recombinant HDAC4 (Homo sapiens, UniProt P56524). The experiment in a line: In vitro HDAC enzymatic assay, HDAC4. The settings on record: read-out: IC50 for inhibition of enzymatic activity of HDAC4; Class IIa.
Another data set deals with T3, recombinant HDAC6 (Homo sapiens, UniProt Q9UBN7).
T3 sequence (Q9UBN7 1-1215): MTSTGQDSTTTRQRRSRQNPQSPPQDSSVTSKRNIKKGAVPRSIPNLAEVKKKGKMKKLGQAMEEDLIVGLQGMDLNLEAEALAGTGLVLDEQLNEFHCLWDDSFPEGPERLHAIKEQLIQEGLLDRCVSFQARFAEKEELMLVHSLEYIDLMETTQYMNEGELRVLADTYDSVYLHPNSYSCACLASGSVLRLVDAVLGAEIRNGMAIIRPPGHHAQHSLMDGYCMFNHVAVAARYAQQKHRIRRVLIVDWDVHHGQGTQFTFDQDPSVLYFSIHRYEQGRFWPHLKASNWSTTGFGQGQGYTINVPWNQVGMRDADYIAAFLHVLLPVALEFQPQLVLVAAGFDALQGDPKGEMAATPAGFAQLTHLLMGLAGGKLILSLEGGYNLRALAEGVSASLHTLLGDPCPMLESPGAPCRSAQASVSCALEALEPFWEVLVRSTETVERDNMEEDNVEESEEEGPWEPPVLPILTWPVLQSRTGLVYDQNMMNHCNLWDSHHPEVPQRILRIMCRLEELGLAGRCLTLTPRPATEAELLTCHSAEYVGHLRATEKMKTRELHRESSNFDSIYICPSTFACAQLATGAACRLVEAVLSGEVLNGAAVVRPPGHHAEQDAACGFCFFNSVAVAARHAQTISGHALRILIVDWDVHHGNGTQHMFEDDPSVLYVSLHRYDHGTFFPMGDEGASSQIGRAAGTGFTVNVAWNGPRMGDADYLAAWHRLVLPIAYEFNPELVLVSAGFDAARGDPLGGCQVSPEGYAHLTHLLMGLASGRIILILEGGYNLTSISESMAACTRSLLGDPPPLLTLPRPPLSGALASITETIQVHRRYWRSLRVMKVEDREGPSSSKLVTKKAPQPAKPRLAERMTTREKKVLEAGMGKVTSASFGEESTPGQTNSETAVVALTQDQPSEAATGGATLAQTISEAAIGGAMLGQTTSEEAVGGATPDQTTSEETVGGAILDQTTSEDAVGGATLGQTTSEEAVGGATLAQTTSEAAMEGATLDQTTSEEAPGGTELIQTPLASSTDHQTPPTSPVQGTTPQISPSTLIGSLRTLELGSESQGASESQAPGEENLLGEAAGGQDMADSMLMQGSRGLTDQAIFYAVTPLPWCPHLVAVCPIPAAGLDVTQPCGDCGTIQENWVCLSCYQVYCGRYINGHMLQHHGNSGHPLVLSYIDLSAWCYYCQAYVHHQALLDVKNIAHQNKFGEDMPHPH
The experiment in a line: In vitro HDAC enzymatic assay, HDAC6.

Data set [13] concerns the target T2, recombinant HDAC1. The following applies: more potent than SAHA.
For data set [14], the system named is Homer1 expression in cortical neurons. In words: NanoString nCounter gene expression assay. It counts as cell-based, mouse. The following applies: crebinostat 1 μM 24 hours, BDNF 20 ng/ml last 6 hours.

The structures appear in SMILES notation. Some results are limits rather than exact numbers.

T2 sequence (Q13547 whole entry): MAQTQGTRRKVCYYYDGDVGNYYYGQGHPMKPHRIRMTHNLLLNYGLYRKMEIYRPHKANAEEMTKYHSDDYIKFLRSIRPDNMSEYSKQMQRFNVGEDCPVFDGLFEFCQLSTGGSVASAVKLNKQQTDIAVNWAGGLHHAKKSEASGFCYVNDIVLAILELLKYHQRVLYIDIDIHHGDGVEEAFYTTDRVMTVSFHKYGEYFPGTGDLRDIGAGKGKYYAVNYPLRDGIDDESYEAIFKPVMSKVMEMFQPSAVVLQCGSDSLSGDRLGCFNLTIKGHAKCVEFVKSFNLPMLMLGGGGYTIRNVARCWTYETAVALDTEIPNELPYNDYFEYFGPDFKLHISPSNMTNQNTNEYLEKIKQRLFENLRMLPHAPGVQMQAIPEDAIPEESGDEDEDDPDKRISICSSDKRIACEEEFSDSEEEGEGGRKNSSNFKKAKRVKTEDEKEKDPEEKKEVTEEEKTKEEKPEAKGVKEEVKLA
Chain of recombinant HDAC9 (Q9UKV0 whole entry): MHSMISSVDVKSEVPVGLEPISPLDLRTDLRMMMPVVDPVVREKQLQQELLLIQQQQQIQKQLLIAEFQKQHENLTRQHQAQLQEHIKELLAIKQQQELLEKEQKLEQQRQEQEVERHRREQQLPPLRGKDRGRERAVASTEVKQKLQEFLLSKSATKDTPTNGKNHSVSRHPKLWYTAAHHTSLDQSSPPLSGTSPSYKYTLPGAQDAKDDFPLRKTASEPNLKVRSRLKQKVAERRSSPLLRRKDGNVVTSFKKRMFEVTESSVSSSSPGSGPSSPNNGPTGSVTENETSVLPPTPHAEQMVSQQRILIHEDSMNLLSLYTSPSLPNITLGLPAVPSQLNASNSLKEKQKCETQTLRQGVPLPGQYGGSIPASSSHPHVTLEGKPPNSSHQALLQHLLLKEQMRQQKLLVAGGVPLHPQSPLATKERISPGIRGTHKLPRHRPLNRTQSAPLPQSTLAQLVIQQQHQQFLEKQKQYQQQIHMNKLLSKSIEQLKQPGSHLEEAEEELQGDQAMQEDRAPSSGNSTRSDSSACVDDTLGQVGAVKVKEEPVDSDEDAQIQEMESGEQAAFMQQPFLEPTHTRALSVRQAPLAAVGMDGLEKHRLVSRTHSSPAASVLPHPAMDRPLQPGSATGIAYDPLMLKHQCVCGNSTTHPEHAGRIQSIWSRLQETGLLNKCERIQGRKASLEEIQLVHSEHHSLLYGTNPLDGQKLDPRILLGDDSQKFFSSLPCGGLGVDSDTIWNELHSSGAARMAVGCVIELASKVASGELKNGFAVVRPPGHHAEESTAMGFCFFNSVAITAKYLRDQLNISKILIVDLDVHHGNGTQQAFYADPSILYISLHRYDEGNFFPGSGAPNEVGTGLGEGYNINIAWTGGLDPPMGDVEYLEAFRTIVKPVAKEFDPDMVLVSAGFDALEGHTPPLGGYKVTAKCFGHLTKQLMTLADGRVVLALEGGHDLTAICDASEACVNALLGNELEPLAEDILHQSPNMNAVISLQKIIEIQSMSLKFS
Chain of recombinant HDAC3 (O15379 whole entry): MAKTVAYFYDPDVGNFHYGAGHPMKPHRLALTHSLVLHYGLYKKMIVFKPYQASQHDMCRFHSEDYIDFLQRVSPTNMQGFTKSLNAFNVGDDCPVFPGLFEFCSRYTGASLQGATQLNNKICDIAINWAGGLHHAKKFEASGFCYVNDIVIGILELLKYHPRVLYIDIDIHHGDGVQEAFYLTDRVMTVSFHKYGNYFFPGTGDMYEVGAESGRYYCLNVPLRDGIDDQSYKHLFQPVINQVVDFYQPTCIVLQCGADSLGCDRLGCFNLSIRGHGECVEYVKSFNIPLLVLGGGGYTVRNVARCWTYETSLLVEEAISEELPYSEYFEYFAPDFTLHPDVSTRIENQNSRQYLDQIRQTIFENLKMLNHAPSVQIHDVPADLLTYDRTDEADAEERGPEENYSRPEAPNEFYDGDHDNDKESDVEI
Chain of recombinant HDAC3 (Q9Y618 395-489 partner limits assumed): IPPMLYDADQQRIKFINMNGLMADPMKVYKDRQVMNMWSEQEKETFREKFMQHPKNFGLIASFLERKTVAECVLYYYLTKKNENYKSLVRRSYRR
Chain of recombinant HDAC4 (P56524 whole entry): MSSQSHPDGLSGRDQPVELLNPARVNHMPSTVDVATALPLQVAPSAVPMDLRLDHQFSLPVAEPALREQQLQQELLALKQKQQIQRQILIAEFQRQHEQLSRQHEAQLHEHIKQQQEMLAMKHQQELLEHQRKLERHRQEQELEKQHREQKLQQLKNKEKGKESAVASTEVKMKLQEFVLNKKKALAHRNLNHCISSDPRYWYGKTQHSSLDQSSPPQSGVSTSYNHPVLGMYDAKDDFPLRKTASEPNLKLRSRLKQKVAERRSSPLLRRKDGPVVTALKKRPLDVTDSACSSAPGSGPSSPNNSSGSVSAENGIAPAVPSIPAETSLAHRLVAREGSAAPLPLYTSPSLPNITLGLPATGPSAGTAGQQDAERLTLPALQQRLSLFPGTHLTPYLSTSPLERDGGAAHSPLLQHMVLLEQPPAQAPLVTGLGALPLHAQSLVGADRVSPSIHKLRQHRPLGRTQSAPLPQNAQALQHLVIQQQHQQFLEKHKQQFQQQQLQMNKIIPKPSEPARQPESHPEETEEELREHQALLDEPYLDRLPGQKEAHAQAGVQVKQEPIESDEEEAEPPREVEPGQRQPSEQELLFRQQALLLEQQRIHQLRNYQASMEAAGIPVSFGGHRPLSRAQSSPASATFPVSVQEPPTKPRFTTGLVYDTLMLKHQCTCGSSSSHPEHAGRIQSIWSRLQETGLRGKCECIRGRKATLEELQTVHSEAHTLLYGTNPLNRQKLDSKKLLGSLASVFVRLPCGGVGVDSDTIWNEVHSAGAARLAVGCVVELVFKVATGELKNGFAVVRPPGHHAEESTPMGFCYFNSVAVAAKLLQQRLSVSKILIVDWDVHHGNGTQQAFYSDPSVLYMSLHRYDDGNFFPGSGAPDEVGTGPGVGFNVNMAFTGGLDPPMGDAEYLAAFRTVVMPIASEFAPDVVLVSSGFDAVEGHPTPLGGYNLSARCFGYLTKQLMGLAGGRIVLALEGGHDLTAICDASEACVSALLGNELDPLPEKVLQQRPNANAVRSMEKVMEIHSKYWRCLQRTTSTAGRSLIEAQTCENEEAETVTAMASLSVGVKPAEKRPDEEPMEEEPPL
Chain of recombinant HDAC2 (Q92769 whole entry): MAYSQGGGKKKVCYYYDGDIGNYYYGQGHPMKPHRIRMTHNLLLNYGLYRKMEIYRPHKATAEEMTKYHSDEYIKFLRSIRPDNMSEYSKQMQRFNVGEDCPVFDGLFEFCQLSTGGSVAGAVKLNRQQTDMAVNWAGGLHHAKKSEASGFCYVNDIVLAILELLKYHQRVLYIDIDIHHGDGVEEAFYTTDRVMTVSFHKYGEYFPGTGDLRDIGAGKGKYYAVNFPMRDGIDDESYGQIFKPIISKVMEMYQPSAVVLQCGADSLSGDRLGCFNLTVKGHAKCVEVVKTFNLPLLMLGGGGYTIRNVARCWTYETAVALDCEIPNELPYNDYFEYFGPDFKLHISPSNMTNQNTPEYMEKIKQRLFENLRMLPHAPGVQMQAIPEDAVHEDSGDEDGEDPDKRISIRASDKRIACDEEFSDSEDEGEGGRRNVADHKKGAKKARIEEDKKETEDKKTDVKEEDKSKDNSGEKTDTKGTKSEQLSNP
Chain of recombinant HDAC5 (Q9UQL6 whole entry): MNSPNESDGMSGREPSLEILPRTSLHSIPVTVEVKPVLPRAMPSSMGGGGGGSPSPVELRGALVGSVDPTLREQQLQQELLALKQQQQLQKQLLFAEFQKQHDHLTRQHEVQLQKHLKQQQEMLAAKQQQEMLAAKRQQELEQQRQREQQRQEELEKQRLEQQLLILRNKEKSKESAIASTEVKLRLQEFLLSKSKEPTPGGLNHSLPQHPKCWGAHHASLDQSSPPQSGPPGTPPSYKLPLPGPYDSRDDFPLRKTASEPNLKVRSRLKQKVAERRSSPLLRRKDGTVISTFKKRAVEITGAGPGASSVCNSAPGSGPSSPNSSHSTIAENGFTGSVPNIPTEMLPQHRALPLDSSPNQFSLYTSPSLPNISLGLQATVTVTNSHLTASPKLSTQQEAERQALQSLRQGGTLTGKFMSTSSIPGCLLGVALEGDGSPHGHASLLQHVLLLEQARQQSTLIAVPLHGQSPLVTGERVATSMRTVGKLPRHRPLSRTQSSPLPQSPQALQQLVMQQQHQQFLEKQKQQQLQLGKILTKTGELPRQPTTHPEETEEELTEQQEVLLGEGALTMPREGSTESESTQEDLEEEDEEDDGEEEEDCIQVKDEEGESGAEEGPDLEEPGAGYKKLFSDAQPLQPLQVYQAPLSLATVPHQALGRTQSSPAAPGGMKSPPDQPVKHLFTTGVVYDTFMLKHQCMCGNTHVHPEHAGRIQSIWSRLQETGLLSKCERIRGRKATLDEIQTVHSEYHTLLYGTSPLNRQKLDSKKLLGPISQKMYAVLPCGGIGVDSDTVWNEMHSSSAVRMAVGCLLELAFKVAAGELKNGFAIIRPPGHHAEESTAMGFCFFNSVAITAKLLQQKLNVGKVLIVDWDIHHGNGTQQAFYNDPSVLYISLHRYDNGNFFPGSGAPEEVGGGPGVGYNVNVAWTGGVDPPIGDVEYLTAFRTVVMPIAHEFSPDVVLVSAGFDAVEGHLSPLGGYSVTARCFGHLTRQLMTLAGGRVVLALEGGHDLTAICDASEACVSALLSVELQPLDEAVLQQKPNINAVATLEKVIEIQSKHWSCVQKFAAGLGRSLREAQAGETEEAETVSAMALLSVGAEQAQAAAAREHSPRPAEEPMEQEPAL

Regarding `O=C(CCCCCCC(=O)Nc1ccccc1)NO` [SAHA, suberoylanilide hydroxamic acid, reference compound], the “expression of Grn (granulin) in cell lines” value in the data set with Grn (granulin) was “upregulate”. Also, in data set [1], the “Egr1-EGFP reporter gene activity” value is “induced”.
On to `O=C(CCCCCC(=O)NN=Cc1ccc(-c2ccccc2)cc1)NO` [crebinostat, 7-(2-([1,1′-biphenyl]-4-ylmethylene)hydrazinyl)-N-hydroxy-7-oxoheptanamide], for which, in data set [2], the “increase in dendritic synapsin I punctae density” value is on record as approximately 2 fold, the “synapsin I punctae size or staining intensity” value was “did not alter” and the “total dendrite length per image” value is recorded as “did not alter”. On recombinant HDAC5, the IC50 was more than 2000 nM. Also, on recombinant HDAC7, the IC50 is more than 2000 nM. Further, in data set [3] (24 hours), the “Grn mRNA expression” value is given as “upregulate”, the “Hspa1b (Hsp70) mRNA expression” value is “upregulated” and the “Mapt mRNA expression” value was “downregulated”. In addition, the “Bdnf mRNA expression” value in data set [3] (24 hours, Bdnf transcript IV) is “upregulated”. Moreover, in data set [3] (24 hrs, normalized to Gapdh), the “Fold upregulation (RT-PCR) Aldh2” value amounted to 2.3 fold, the “Fold upregulation (RT-PCR) Egr1” value came out at 3.9 fold, the “Fold upregulation (RT-PCR) Pik3c3” value was 2.2 fold and the “Fold upregulation (RT-PCR) Sdcbp” value turned out to be 2.3 fold. Besides, in data set [4], the “total hippocampal acetylation of H4K12 and H3K9” value is listed as “not statistically significant”. In addition, the “exploratory activity immediately prior to foot shock versus vehicle” value in the data set on C57BL/6J mice is “no significant differences”. For the same compound, the “toxicity in neuronal cultures” value in data set [5] was “no detectable toxicity”. Besides, in data set [6], the “Fold upregulation (Illumina array) Aldh2” value amounted to 2.0 fold and the “Fold upregulation (Illumina array) Sdcbp” value is given as 2.2 fold. Also, the 50% inhibitory concentration (IC50) at recombinant HDAC9 was more than 2000 nM. The “potency relative to SAHA at inducing histone acetylation in neurons” value in data set [7] is reported as ~ 6 fold. In addition, the “effect on forskolin induction of the CREB reporter gene” value in [8] is reported as “strong activation of the reporter only in the presence of forskolin”. Also, the “histone acetylation (AcH4K12) in cultures on glass coverslips” value in data set [9] is listed as “robust increase”. For the same compound, the “acetylation of histone H3, H4, H2A and H2B (western blot)” value in data set [10] is “strong increases”. On recombinant HDAC2, the IC50 was 1 ± 0.08 nM. The IC50 on recombinant HDAC1 [11] is 0.7 ± 0.04 nM. Besides, the IC50 on recombinant HDAC3 stood at 2 ± 0.3 nM. In [12] (C57BL/6, mouse, brain, ip, 25 mg/kg, half-life (T1/2), mouse brain), this compound gave a half-life of 43.2 min. Moreover, the “time of Cmax in brain post-injection” value in data set [12] (mouse) turned out to be 30 min. The 50% inhibitory concentration (IC50) on recombinant HDAC4 is more than 2000 nM. The IC50 at recombinant HDAC6 stood at 9.3 ± 0.6 nM. For the same compound, the “Egr1-EGFP reporter gene activity” value in data set [1] is reported as “induced”. Moreover, the “potency relative to SAHA for inhibition of class I HDACs 1-3” value on recombinant HDAC1 [13] is recorded as “approximately 10 fold”. In [14], the “regulation of Homer1 expression together with BDNF stimulation” value was “synergistic”.
`C=C[C@@]1(C)CC(=O)[C@]2(O)[C@@]3(C)[C@@H](O)CCC(C)(C)[C@@H]3[C@H](O)[C@H](OC(C)=O)[C@@]2(C)O1` [forskolin]: the “induction of the CREB reporter gene” value in [8] (10 μM, 4 hours, PC12 cells) is ~ 4 fold.
Take `CC(/C=C/C(=O)NO)=C\[C@@H](C)C(=O)c1ccc(N(C)C)cc1` [trichostatin A]: the “effect on forskolin induction of the CREB reporter gene” value in data set [8] is reported as “further enhanced”.

As usually defined, the IC50 is the concentration needed to halve the response being measured. Usually half-life stands for how long it takes for the measured level to halve.
